Among the test systems are A498 renal; U251 CNS; RXF 393 renal; 786-0 renal; NCI-H460 lung; HT29 colon; SK-OV-3 ovarian; PC-3 prostate; MOLT-4 leukemia; OVCAR-3 ovarian.
Common to all, as to assay: inhibition of tumour cell growth, NCI panel, 48 h

In PubChem BioAssay (NCI) one finds GI50 and TGI data, which are given here for eight compounds.

The structures appear in SMILES notation. Values joined by “and” are separate entries in the source; they are usually repeats but may differ in a detail not shown here. Equal values may be shown once.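 Exposure lasted 48 hours, with cells grown in 96-well plates and compounds tested at five concentrations. The concentration for 50% growth inhibition is given as GI50. TGI denotes the concentration required for complete inhibition of growth.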

In the case of `COc1c2ccccc2c(O)c2c(=O)c(C(=O)O)cn(C)c12`, the GI50 is 18.8 µM with A498 renal; over 100 µM with U251 CNS; 80.3 µM in the assay on RXF 393 renal; over 100 µM in the assay on 786-0 renal; over 100 µM in the assay on NCI-H460 lung; over 100 µM with HT29 colon. Further, the GI50 with SK-OV-3 ovarian, with PC-3 prostate, with MOLT-4 leukemia and in the assay with OVCAR-3 ovarian was over 100 µM throughout. The TGI in the assay with A498 renal, in the assay on U251 CNS, in the assay on RXF 393 renal, in the assay with 786-0 renal, with NCI-H460 lung and in the assay with HT29 colon was over 100 µM in each case. The TGI in the assay on SK-OV-3 ovarian, in the assay on PC-3 prostate, with MOLT-4 leukemia and in the assay with OVCAR-3 ovarian was over 100 µM in each case.

In the case of `O=C(Oc1ccc([N+](=O)[O-])cc1)N1CCN(Cc2cccc(Oc3ccccc3)c2)CC1`, the GI50 was over 47.6 µM with A498 renal; over 100 µM with U251 CNS; over 100 µM in the assay on RXF 393 renal; over 100 µM in the assay on 786-0 renal; 99.3 µM with NCI-H460 lung; 40.6 µM in the assay on HT29 colon. The GI50 is over 100 µM in the assay with SK-OV-3 ovarian, over 69.6 µM with PC-3 prostate, 38.9 µM in the assay on MOLT-4 leukemia and over 96.2 µM in the assay with OVCAR-3 ovarian. Also, the TGI with A498 renal, in the assay with U251 CNS, with RXF 393 renal, in the assay with 786-0 renal, in the assay on NCI-H460 lung and in the assay on HT29 colon was over 100 µM throughout. Besides, the TGI in the assay on SK-OV-3 ovarian, in the assay on PC-3 prostate, in the assay with MOLT-4 leukemia and in the assay on OVCAR-3 ovarian was over 100 µM each time.

As for `CN(C)CCNC(=O)c1cccc2cc3ccccc3nc12`, the GI50 in the assay on A498 renal was 1.26 µM; with U251 CNS, 1.02 µM; with RXF 393 renal, 1.42 µM; with 786-0 renal, 1.52 µM; in the assay on NCI-H460 lung, 0.426 µM; in the assay with HT29 colon, 0.774 µM. For the same compound, the GI50 in the assay with SK-OV-3 ovarian is 1.03 µM; in the assay with PC-3 prostate, 2.33 µM; in the assay on MOLT-4 leukemia, 0.399 µM; in the assay with OVCAR-3 ovarian, 1.36 µM. The TGI in the assay with A498 renal amounted to 2.8 µM; in the assay on U251 CNS, 4.91 µM; in the assay with RXF 393 renal, 4.13 µM; in the assay with 786-0 renal, 8.64 µM; with NCI-H460 lung, 1.98 µM; with HT29 colon, 3.15 µM. Further, the TGI with SK-OV-3 ovarian is 11 µM; with PC-3 prostate, 10.8 µM; in the assay with MOLT-4 leukemia it was 7.95 µM; in the assay on OVCAR-3 ovarian, 4.22 µM.

`Cn1ccc(=Nc2ccc(NC(=O)c3ccc(N=c4ccn(C)c5ccc([N+](=O)[O-])cc45)cc3)cc2)cc1`: the GI50 in the assay with A498 renal is over 100 µM; in the assay on U251 CNS, 0.437 µM; in the assay with RXF 393 renal it was 21.4 µM; with 786-0 renal, 56.1 µM; in the assay on NCI-H460 lung, 22.6 µM; with HT29 colon it was 7.54 µM. Moreover, the GI50 is over 100 µM in the assay with SK-OV-3 ovarian, 9.2 µM with PC-3 prostate, over 100 µM with MOLT-4 leukemia and 15.2 µM in the assay on OVCAR-3 ovarian. Also, the TGI was over 100 µM in the assay with A498 renal; over 100 µM with U251 CNS; 44.6 µM with RXF 393 renal; over 100 µM with 786-0 renal; over 100 µM in the assay on NCI-H460 lung; over 100 µM in the assay on HT29 colon. Further, the TGI in the assay on SK-OV-3 ovarian is over 100 µM; in the assay with PC-3 prostate it was over 100 µM; with MOLT-4 leukemia, over 100 µM; with OVCAR-3 ovarian it was 78.7 µM.

As for `Nc1ccn([C@H]2C[C@@H](O)[C@@H](CO)S2)c(=O)n1`, the GI50 with A498 renal was over 100 µM; in the assay on U251 CNS it was over 100 µM; with RXF 393 renal, over 39.1 µM; in the assay on 786-0 renal, over 100 µM; in the assay with NCI-H460 lung it was 34.9 µM; in the assay with HT29 colon, over 100 µM. Also, the GI50 in the assay with SK-OV-3 ovarian, in the assay on PC-3 prostate, in the assay on MOLT-4 leukemia and in the assay on OVCAR-3 ovarian was over 100 µM in each case. Also, the TGI with A498 renal, with U251 CNS, in the assay with RXF 393 renal, with 786-0 renal, in the assay with NCI-H460 lung and in the assay with HT29 colon was over 100 µM throughout. Moreover, the TGI in the assay with SK-OV-3 ovarian, in the assay with PC-3 prostate, in the assay on MOLT-4 leukemia and in the assay on OVCAR-3 ovarian was over 100 µM each time.

Turning to `Cc1cc(O)c2c(c1)C(=O)c1cc(O)cc(O)c1C2=O`, the TGI with A498 renal is 56.5 µM; in the assay with U251 CNS, over 96.3 µM; in the assay on RXF 393 renal, over 100 µM; in the assay on 786-0 renal, 84.6 µM; in the assay with NCI-H460 lung, over 78.4 µM; in the assay on HT29 colon it was over 100 µM. Besides, the TGI with SK-OV-3 ovarian is over 91.9 µM; in the assay with PC-3 prostate it was over 100 µM; with MOLT-4 leukemia, over 100 µM; with OVCAR-3 ovarian it was 42.2 µM. In addition, the GI50 in the assay on 786-0 renal is 25.5 µM; with PC-3 prostate, 25 µM; in the assay on OVCAR-3 ovarian, 14.7 µM.

As for `NC1=NC(c2ccccc2)N=C(Nc2ccccc2)N1` (centres undefined), the GI50 with A498 renal was 11.4 µM; with U251 CNS, 42.1 µM; with RXF 393 renal it was over 100 µM; with 786-0 renal, over 100 µM; with NCI-H460 lung, over 100 µM; in the assay with HT29 colon, over 100 µM. Also, the GI50 in the assay on SK-OV-3 ovarian was over 100 µM; in the assay on PC-3 prostate, over 100 µM; with MOLT-4 leukemia, over 100 µM; with OVCAR-3 ovarian, 32 µM. Moreover, the TGI with A498 renal, with U251 CNS, in the assay with RXF 393 renal, with 786-0 renal, in the assay on NCI-H460 lung and in the assay with HT29 colon was over 100 µM each time. In addition, the TGI with SK-OV-3 ovarian, in the assay on PC-3 prostate, in the assay with MOLT-4 leukemia and in the assay with OVCAR-3 ovarian was over 100 µM in each case.

Take `CCC(=O)OC1CCn2c1nc1c2C(=O)C(C)=C(N2CC2)C1=O` (centres undefined): the TGI was 0.106 µM with A498 renal; 0.484 µM and 0.576 µM in the assay on U251 CNS; 0.026 µM and 0.111 µM in the assay on RXF 393 renal; 0.0452 µM and 0.124 µM in the assay with NCI-H460 lung; 1.09 µM and 0.495 µM with HT29 colon; 0.255 µM and 0.283 µM with SK-OV-3 ovarian. Moreover, the TGI is 0.306 µM in the assay on PC-3 prostate; over 83.6 µM with MOLT-4 leukemia; 0.0975 µM and 0.137 µM with OVCAR-3 ovarian. Moreover, the GI50 in the assay with U251 CNS is 0.0733 µM; in the assay on RXF 393 renal, 0.0107 µM; with 786-0 renal it was 0.017 µM; in the assay with NCI-H460 lung, 0.0141 µM; in the assay on SK-OV-3 ovarian it was 0.0407 µM; in the assay with MOLT-4 leukemia, 1.46 µM. In addition, in the assay on OVCAR-3 ovarian, the GI50 is 0.0296 µM.
